According to patent US12109266B2, “Modulating gabarap to modulate immunogenic cell death” (Dana-Farber Cancer Institute, Inc., priority 2020, dated 2024):
“Also recorded” adds a separate entry of the source.

How the values were obtained:
[1] = test system: 5TGM1 multiple myeloma cell line; experiment: Apoptosis assay (Annexin-V/7-AAD flow cytometry); type: cell-based, murine
Method: (§1) Apoptosis was evaluated by Annexin-V/7-Aminoactinomycin D (7-AAD) staining and flow cytometric analysis using the PE Annexin V Apoptosis Detection Kit I (BD Biosciences), following the manufacturer's instructions.
(§2) Apoptosis was evaluated by Annexin-V/7-Aminoactinomycin D (7-AAD) staining and flow cytometric analysis using the PE Annexin V Apoptosis Detection Kit I (BD Biosciences).

[2] = test system: 5TGM1 tumors; experiment: RNA-seq analysis from mouse tumors; type: in vivo; conditions: immunocompetent mice
Method: Tumors growing from both 5TGM1 WT or calrKO cells in C57BL/KaLwRijHsd mice treated with either PBS or BTZ (3/group) were harvested and used to extract RNA using the RNeasy® kit (Qiagen). After passing quality control, RNAseq was performed using Illumina NextSeq 500 Single-End 75 bp (SE75) and analyzed following the VIPER NGS analysis pipeline (Cornwell et al. (2018) BMC Bioinform. 19:135) comparing BTZ-treated mice vs PBS in each experimental setting. Listing of differentially expressed genes (DEGs) were applied to gene set enrichment analysis (GSEA) and Cytoscape (Bindea et al. (2009) Bioinform. 25:1091-1093; Bindea et al. (2013) Bioinform. 29:661-663) software to reveal biological pathways modulated by BTZ.
Tumors growing from both 5TGM1 WT or Calr^KO cells in C57BL/KaLwRijHsd mice treated with either PBS or BTZ (3/group) were harvested and used to extract RNA using the RNeasy kit (Qiagen). After passing quality control, RNAseq was performed using Illumina NextSeq 500 Single-End 75 bp (SE75) and analyzed following the VIPER NGS analysis pipeline (Cornwell et al. (2018) BMC Bioinformatics; 19(1):135), comparing BTZ-treated mice vs PBS in each experimental setting. […] Analysis of expression of human orthologs of these 90 genes in MM patients and correlation with patient clinical outcome was then analyzed as detailed below. […]

[3] = test system: AMO1 and NCI-H929 multiple myeloma cell lines; experiment: Apoptosis assay (Annexin-V/7-AAD flow cytometry); type: cell-based, human; conditions: BTZ 1-10 nM, 16 h
Method: as §1, §2

[4] = test system: AMO1, H929 and KMS11 MM cells; experiment: Cell surface exposure of CALR (flow cytometry); type: cell-based, human
Method: Multiple myeloma (MM) cells were seeded in 12-well plates (2×10^5 per well), treated with BTZ for 16 h at indicated concentrations, and then stained with Alexa Fluor647® anti-calreticulin antibody (ab196159, Abcam) and 7-AAD. Analysis of fluorescence intensity on 7-AAD negative cells was assessed using BD LRSFortessa™ X-20 flow cytometer.
MM cells were seeded in 12-well plates (2×10^5 per well), treated with BTZ for 16 h at indicated concentrations, and then stained with Alexa Fluor647® anti-calreticulin antibody (ab196159, Abcam) and 7-AAD. Analysis of fluorescence intensity on 7-AAD negative cells using BD LRSFortessa X-20 flow cytometer.

[5] = test system: U266 cells; experiment: Cytotoxicity assay (T cell lysis of MM cells); type: cell-based, human; conditions: T cells from BTZ co-culture, 24 h
Method: After coculture of HLA-matched DCs and T cells from healthy donors with either untreated or BTZ-treated U266 cells for 5 days, T cells were negatively selected using the Pan T cell Isolation Kit (Miltenyi Biotec) and plated in round bottom 96-well plates with naïve U266 cells pre-stained with CFSE dye (ThermoFisher Scientific) at different target:effector (T:E) ratios for 24 h in the presence of IL-2 (#130-097-74, Miltenyi Biotec). Then cells were 7AAD-stained, and detection of viable CFSE-gated cells was performed using BD LRSFortessa X-20 cytometer.

For `CC(C)C[C@H](NC(=O)[C@H](Cc1ccccc1)NC(=O)c1cnccn1)B(O)O` [BTZ, bortezomib], which “multiple myeloma cell death, as measured by phosphatidylserine exposure” value ([1]; 5TGM1, BTZ 1-10 nM, 16 h) is on record?
Its value is “induced multiple myeloma cell death in a dose-dependent manner”.

And the “apoptosis (annexin-V-positive cells)” value ([1]; 5TGM1 WT vs Calr^KO clones, BTZ 7.5 nM)?
The value was “triggered apoptosis in both 5TGM1 WT cells and the Calr^KO clones at the same extent”.

And the “transcriptional changes in tumors (RNA-seq)” value ([2]; 5TGM1 Calr^KO tumors)?
The value was “decreased this effect”.

What about the “transcriptional changes in tumors (RNA-seq)” value ([2]; 5TGM1 WT tumors, two BTZ treatments 0.5 mg/kg) of the same compound?
Its value is “switched on a transcriptional program that is linked to the activation of an immune response; also recorded: consistent with activation of an immune response”.

What about the “multiple myeloma cell death, as measured by phosphatidylserine exposure” value [3] of the same compound?
The value was “induced multiple myeloma cell death in a dose-dependent manner”.

And the “CALR exposure on cell surface” value ([4]; AMO1, H929 WT, BTZ 1-10 nM, 16 h, viable (7-AAD negative) cells)?
The value was “triggers calreticulin (CALR; also referred to as CRT) exposure by cancer cells; also recorded: can induce hallmarks of ICD in human and murine MM cell lines; also recorded: dose-dependent increase of CTLR exposure”.

And the “CALR exposure on cell surface” value ([4]; AMO1 STING^KO, BTZ 5 nM, 16 h)?
Its value is “did not alter CALR exposure process”.

What about the “CALR exposure on cell surface” value ([4]; AMO1 and H929 GABARAP^KO clones) of the same compound?
The value was “did not increase CRT exposure; also recorded: GABARAP^KO blocks CALR exposure upon BTZ”.

And the “CALR exposure on cell surface” value ([4]; AMO1 and H929 GABARAP^KO clones, listed as Bortezomib)?
The value was “did not induce CALR exposure in MM cells due to GABARAP deletion”.

And the “CALR exposure on cell surface” value ([4]; KMS11 cells (monoallelic deletion of GABARAP))?
Its value is “did not lead to an increase of CRT exposure”.

What about the “lysis of MM cells by T cells isolated after co-culture” value [5] of the same compound?
The value was “able to efficiently induce lysis of multiple myeloma cells”.
